# According to ChEMBL document CHEMBL1201862, “PubChem BioAssay data set” (2004):
#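 Values below derive from 48-hour exposures of cells grown in 96-well plates, with endpoints linearly interpolated between the two concentrations bracketing the appropriate inhibition level. GI50: concentration for 50% inhibition of growth.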 Calls of active or inactive are those of the source. Rule as the data show it: active = GI50 up to about 1.1 µM and inactive = higher.
# Experiments:
# Experiment in all cases: NCI tumour cell line growth inhibition, 48 h
# SK-MEL-5 = tested on: SK-MEL-5
# A498 = tested on: A498
# 786-0 = tested on: 786-0
# LOX IMVI = tested on: LOX IMVI
# SK-MEL-2 = tested on: SK-MEL-2
# U-251 = tested on: U-251
# OVCAR-5 = tested on: OVCAR-5
# CAKI-1 = tested on: CAKI-1
# MCF7 = tested on: MCF7
# SR = tested on: SR
# MDA-N = tested on: MDA-N
# M14 = tested on: M14
# IGROV-1 = tested on: IGROV-1
# NCI-H522 = tested on: NCI-H522
# UACC-257 = tested on: UACC-257
# NCI-H460 = tested on: NCI-H460
# MDA-MB-435 = tested on: MDA-MB-435
# NCI-H226 = tested on: NCI-H226
# SF-295 = tested on: SF-295
# SN12C = tested on: SN12C
# OVCAR-3 = tested on: OVCAR-3
# DU-145 = tested on: DU-145
# MDA-MB-231 = tested on: MDA-MB-231
# SW-620 = tested on: SW-620
# UO-31 = tested on: UO-31
# KM12 = tested on: KM12
# PC-3 = tested on: PC-3
# HCT-15 = tested on: HCT-15
# T47D = tested on: T47D
# HCT-116 = tested on: HCT-116
# RXF 393 = tested on: RXF 393
# EKVX = tested on: EKVX
# Malme-3M = tested on: Malme-3M
# TK-10 = tested on: TK-10
# Hs-578T = tested on: Hs-578T
# HOP-62 = tested on: HOP-62
# HT-29 = tested on: HT-29
# A549 = tested on: A549
# NCI-H23 = tested on: NCI-H23
# BT-549 = tested on: BT-549
# UACC-62 = tested on: UACC-62
# RPMI-8226 = tested on: RPMI-8226
# OVCAR-8 = tested on: OVCAR-8
# HL-60 = tested on: HL-60
# NCI/ADR-RES = tested on: NCI/ADR-RES
# MOLT-4 = tested on: MOLT-4
# SK-OV-3 = tested on: SK-OV-3
# CCRF-CEM = tested on: CCRF-CEM
# K562 = tested on: K562
# SNB-75 = tested on: SNB-75
# ACHN = tested on: ACHN
# HOP-92 = tested on: HOP-92
# SF-268 = tested on: SF-268
# COLO 205 = tested on: COLO 205
# SK-MEL-28 = tested on: SK-MEL-28
# OVCAR-4 = tested on: OVCAR-4
# SNB-19 = tested on: SNB-19
# SF-539 = tested on: SF-539
# HCC 2998 = tested on: HCC 2998
smiles,measurement,setting,value
c1ccc(CN2CCCN3CCN(CCCN(Cc4ccccc4)CC3)CC2)cc1,GI50,SK-MEL-5,19.3 µM (inactive)
same,GI50,A498,58.5 µM (inactive)
same,GI50,786-0,42.2 µM (inactive)
same,GI50,LOX IMVI,51.9 µM (inactive)
same,GI50,SK-MEL-2,22.2 µM (inactive)
same,GI50,U-251,36.4 µM (inactive)
same,GI50,OVCAR-5,> 100 µM (inactive)
same,GI50,CAKI-1,> 100 µM (inactive)
same,GI50,MCF7,38.3 µM (inactive)
same,GI50,SR,43 µM (inactive)
same,GI50,MDA-N,30.5 µM (inactive)
same,GI50,M14,38 µM (inactive)
same,GI50,IGROV-1,60 µM (inactive)
same,GI50,NCI-H522,36.1 µM (inactive)
same,GI50,UACC-257,22 µM (inactive)
same,GI50,NCI-H460,39.4 µM (inactive)
same,GI50,MDA-MB-435,32.7 µM (inactive)
same,GI50,NCI-H226,73.6 µM (inactive)
same,GI50,SF-295,87.7 µM (inactive)
same,GI50,SN12C,31.5 µM (inactive)
same,GI50,OVCAR-3,27.2 µM (inactive)
same,GI50,DU-145,68.5 µM (inactive)
same,GI50,MDA-MB-231,38.2 µM (inactive)
same,GI50,SW-620,> 100 µM (inactive)
same,GI50,UO-31,> 100 µM (inactive)
same,GI50,KM12,31.6 µM (inactive)
same,GI50,PC-3,30.5 µM (inactive)
same,GI50,HCT-15,> 100 µM
same,GI50,T47D,35.7 µM (inactive)
same,GI50,HCT-116,35.2 µM (inactive)
same,GI50,RXF 393,> 100 µM (inactive)
same,GI50,EKVX,41.9 µM (inactive)
same,GI50,Malme-3M,0.227 µM (active)
same,GI50,TK-10,55.6 µM (inactive)
same,GI50,Hs-578T,> 100 µM (inactive)
same,GI50,HOP-62,> 100 µM (inactive)
same,GI50,HT-29,35.9 µM (inactive)
same,GI50,A549,69.5 µM (inactive)
same,GI50,NCI-H23,34.1 µM (inactive)
same,GI50,BT-549,44.5 µM (inactive)
same,GI50,UACC-62,35.1 µM (inactive)
same,GI50,RPMI-8226,13 µM (inactive)
same,GI50,OVCAR-8,50.9 µM (inactive)
same,GI50,HL-60,24.7 µM (inactive)
same,GI50,NCI/ADR-RES,> 100 µM (inactive)
same,GI50,MOLT-4,81.3 µM (inactive)
same,GI50,SK-OV-3,> 100 µM (inactive)
same,GI50,CCRF-CEM,46.9 µM (inactive)
same,GI50,K562,32 µM (inactive)
same,GI50,SNB-75,32 µM (inactive)
same,GI50,ACHN,> 100 µM (inactive)
same,GI50,HOP-92,92 µM (inactive)
same,GI50,SF-268,78.7 µM (inactive)
same,GI50,COLO 205,25.3 µM (inactive)
same,GI50,SK-MEL-28,39.4 µM (inactive)
same,GI50,OVCAR-4,35.6 µM (inactive)
same,GI50,SNB-19,35.5 µM (inactive)
same,GI50,SF-539,87.7 µM (inactive)
COc1ccccc1Cn1nc(OC)c2cc([N+](=O)[O-])ccc21,GI50,SK-MEL-5,> 53.7 µM (inactive)
same,GI50,A498,26.9 µM (inactive)
same,GI50,786-0,11.6 µM (inactive)
same,GI50,LOX IMVI,> 100 µM (inactive)
same,GI50,SK-MEL-2,19.7 µM (inactive)
same,GI50,U-251,12 µM (inactive)
same,GI50,OVCAR-5,> 100 µM (inactive)
same,GI50,CAKI-1,15 µM (inactive)
same,GI50,MCF7,45.8 µM (inactive)
same,GI50,SR,> 100 µM (inactive)
same,GI50,MDA-N,> 100 µM (inactive)
same,GI50,M14,> 100 µM (inactive)
same,GI50,IGROV-1,34.8 µM (inactive)
same,GI50,NCI-H522,17.9 µM (inactive)
same,GI50,HCC 2998,> 100 µM (inactive)
same,GI50,UACC-257,> 74 µM (inactive)
same,GI50,NCI-H460,66.7 µM (inactive)
same,GI50,MDA-MB-435,> 71 µM (inactive)
same,GI50,NCI-H226,42.1 µM (inactive)
same,GI50,SF-295,6.3 µM (inactive)
same,GI50,SN12C,> 69 µM (inactive)
same,GI50,OVCAR-3,> 100 µM (inactive)
same,GI50,DU-145,> 100 µM (inactive)
same,GI50,MDA-MB-231,> 41.1 µM (inactive)
same,GI50,SW-620,> 100 µM (inactive)
same,GI50,UO-31,> 35.1 µM (inactive)
same,GI50,KM12,> 100 µM (inactive)
same,GI50,PC-3,> 100 µM (inactive)
same,GI50,HCT-15,> 70.1 µM
same,GI50,T47D,> 100 µM (inactive)
same,GI50,HCT-116,32.7 µM (inactive)
same,GI50,RXF 393,1.88 µM (inactive)
same,GI50,EKVX,35.6 µM (inactive)
same,GI50,Malme-3M,> 87.5 µM (inactive)
same,GI50,TK-10,12.5 µM (inactive)
same,GI50,Hs-578T,3.61 µM (inactive)
same,GI50,HOP-62,4.48 µM (inactive)
same,GI50,HT-29,> 100 µM (inactive)
same,GI50,A549,63.2 µM (inactive)
same,GI50,NCI-H23,35.6 µM (inactive)
same,GI50,BT-549,16.9 µM (inactive)
same,GI50,OVCAR-8,31.1 µM (inactive)
same,GI50,HL-60,> 100 µM (inactive)
same,GI50,NCI/ADR-RES,59.3 µM (inactive)
same,GI50,MOLT-4,> 100 µM (inactive)
same,GI50,CCRF-CEM,> 100 µM (inactive)
same,GI50,K562,> 100 µM (inactive)
same,GI50,SNB-75,4.16 µM (inactive)
same,GI50,ACHN,31 µM (inactive)
same,GI50,HOP-92,0.383 µM (active)
same,GI50,SF-268,13.1 µM (inactive)
same,GI50,COLO 205,> 100 µM (inactive)
same,GI50,SK-MEL-28,> 91 µM (inactive)
same,GI50,OVCAR-4,13.4 µM (inactive)
same,GI50,SNB-19,11.1 µM (inactive)
same,GI50,SF-539,13.8 µM (inactive)
COC(=O)C1=C(C(=O)OC)c2cc(OC)ccc2C(C(=S)N(C)C)S1 (configuration not stated),GI50,A498,> 100 µM (inactive)
same,GI50,786-0,> 100 µM (inactive)
same,GI50,LOX IMVI,> 100 µM (inactive)
same,GI50,SK-MEL-2,> 100 µM (inactive)
same,GI50,U-251,> 100 µM (inactive)
same,GI50,OVCAR-5,> 100 µM (inactive)
same,GI50,CAKI-1,99.1 µM (inactive)
same,GI50,MCF7,> 100 µM (inactive)
same,GI50,SR,> 100 µM (inactive)
same,GI50,MDA-N,> 100 µM (inactive)
same,GI50,M14,> 100 µM (inactive)
same,GI50,IGROV-1,> 100 µM (inactive)
same,GI50,HCC 2998,> 100 µM (inactive)
same,GI50,UACC-257,> 100 µM (inactive)
same,GI50,NCI-H460,> 100 µM (inactive)
same,GI50,MDA-MB-435,> 100 µM (inactive)
same,GI50,NCI-H226,> 100 µM (inactive)
same,GI50,SF-295,> 100 µM (inactive)
same,GI50,SN12C,> 100 µM (inactive)
same,GI50,OVCAR-3,> 100 µM (inactive)
same,GI50,DU-145,> 100 µM (inactive)
same,GI50,MDA-MB-231,> 100 µM (inactive)
same,GI50,SW-620,> 100 µM (inactive)
same,GI50,UO-31,> 100 µM (inactive)
same,GI50,KM12,> 100 µM (inactive)
same,GI50,PC-3,> 100 µM (inactive)
same,GI50,HCT-15,> 100 µM
same,GI50,T47D,> 100 µM (inactive)
same,GI50,HCT-116,> 100 µM (inactive)
same,GI50,RXF 393,> 100 µM (inactive)
same,GI50,EKVX,> 100 µM (inactive)
same,GI50,Malme-3M,> 100 µM (inactive)
same,GI50,TK-10,> 100 µM (inactive)
same,GI50,Hs-578T,> 100 µM (inactive)
same,GI50,HOP-62,> 100 µM (inactive)
same,GI50,A549,> 100 µM (inactive)
same,GI50,NCI-H23,> 100 µM (inactive)
same,GI50,BT-549,19.2 µM (inactive)
same,GI50,UACC-62,> 100 µM (inactive)
same,GI50,RPMI-8226,> 100 µM (inactive)
same,GI50,OVCAR-8,> 100 µM (inactive)
same,GI50,NCI/ADR-RES,> 100 µM (inactive)
same,GI50,MOLT-4,> 100 µM (inactive)
same,GI50,SK-OV-3,> 100 µM (inactive)
same,GI50,K562,> 100 µM (inactive)
same,GI50,SNB-75,> 100 µM (inactive)
same,GI50,ACHN,> 100 µM (inactive)
same,GI50,HOP-92,0.0111 µM (active)
same,GI50,SF-268,> 100 µM (inactive)
same,GI50,COLO 205,> 100 µM (inactive)
same,GI50,SK-MEL-28,> 100 µM (inactive)
same,GI50,OVCAR-4,> 100 µM (inactive)
same,GI50,SNB-19,> 100 µM (inactive)
